`C(=Cc1cncn1Cc1ccccc1)CC(c1ccccc1)c1ccccc1` displayed a melting point of 204 to 206 °C.
As for `COc1ccc2c(c1)c1c(n2C(=O)c2ccc(Cl)cc2)CCCC1C(=O)O` (centres undefined), the melting point lay in the range of 181 to 185 °C.
On to `CC(C)CN(CC(C)C)c1ccc(C(=O)c2ccccc2)cc1[N+](=O)[O-]`, for which the melting point was in the range of 80 to 81 °C.
With `CS(=O)(=O)c1ccc(-c2cc(=O)n(CC(F)(F)F)nc2-c2ccc(F)cc2)cc1`, the melting point is 177 to 179 °C.
`COC(=O)CCC#Cc1cc(Cl)ccc1NS(=O)(=O)c1ccc2nc(N)sc2c1`: the melting point is 175 °C.
In the case of `CC1NC(=O)NN=C1c1ccc2c(c1)CCC(=O)N2CCO` (centres undefined), the melting point is 237 to 243 °C.
The compound `CCOC(=O)c1sc(-c2ccc3c(=O)n(CC(C)C)c(CNC(=O)OCC4c5ccccc5-c5ccccc54)c(-c4ccccc4)c3c2)nc1C` registered a melting point of 157 to 158 °C.
The compound `C[C@H](NC(=O)CCn1cc(C2=C(c3cn(C)c4ccccc34)C(=O)NC2=O)c2ccccc21)C(=O)O` registered a melting point of 240 to 255 °C.
Consider `CCCCc1nc(C(C)(C)O)c(C(=O)O)n1Cc1ccc(-c2ccccc2C(=O)OC(C)(C)C)cc1`, for which the melting point was 158 to 159 °C.
The compound `O=C1N[C@H](Cc2ccc(C(F)(F)F)cc2)[C@H](c2cccc3ccccc23)O1` (racemic) showed a melting point of 202 to 203 °C.
For the compound `CCn1c2ccc(C=O)cc2c2ccc3ccccc3c21`, the melting point lay in the range of 135 to 140 °C.
Regarding `O=c1oc(=O)n(Cc2ccccc2)c2ncccc12`, the melting point stood at 168 °C.
As for `CC(NC1=NS(=O)(=O)c2cc(Br)ccc2N1)C(C)(C)C` (centres undefined), the figure is greater than 220 °C; as for `CC(CCn1cnc2ccccc21)NCC(O)COc1ccc(CC(N)=O)cc1` (centres undefined), 139 to 142 °C; as for `CCN1C(=O)c2cccnc2N(CC)c2ncccc21`, 102 to 103 °C.
The compound `CC(=O)N1c2ccc(F)cc2CC1C#N` (centres undefined) gave a melting point of 93 to 95 °C.
For the compound `O=C(Nc1cccc(S(=O)(=O)NC2(CO)CCCC2)c1)c1cnn2c(C3CC3)cc(-c3ccc(Cl)cc3)nc12`, the melting point was in the range of 255 to 257 °C.
As for `Nc1ncccc1C(=O)NCC1CCN(C[C@H]2COc3ccc(Cl)cc3O2)CC1`, the figure is 150 to 152 °C.
The compound `CCOC(=O)CNC(=O)Nc1ccc(S(=O)(=O)Nc2onc(C)c2C)cc1` displayed a melting point of 115 to 125 °C.
For `Nc1cccc(Oc2cnc3cc(Cl)ccc3n2)c1`, the melting point fell in the range of 119 to 120 °C.
Regarding `Cc1noc(NS(=O)(=O)c2ccsc2C(=O)Nc2ccccc2)c1C`, the melting point turned out to be 176 °C.
As for `COc1cc(Cl)cn2cc(-c3ccc(Cl)cc3)nc12`, the figure is 150 to 151 °C; as for `CCOC(=O)c1cn(CC)c2nc(N3CCN(CCO)CC3)ncc2c1=O`, 172 °C.
As for `COc1ccc(-c2cc3cc(OC)cc(C(C)(C)C#N)c3o2)cc1`, the figure is 146 to 148 °C.
In the case of `CC(C)(C)OC(=O)[C@H]1CC[C@@H](c2ccccc2)N1C(=O)CNC(=O)Nc1cccc(CO)c1` (racemic), the melting point is 168 °C.
As for `O=Cc1c(Br)nc(Sc2ccccc2)n1Cc1cc2c(cc1Cl)OCO2`, the figure is 155 °C; as for `CCCCCCCCCCCCCCCC(=O)OC1CN(C)C2(C1)C1CC3CC(C1)CC2C3` (centres undefined), 50 to 53 °C; as for `C=CCNC(=O)c1cnc2c(OC)cccc2c1Cl`, 114 to 116 °C.
The value for `CCCn1nc2c(N)nc3ccccc3c2c1CC(C)(C)N` was 193 to 195 °C.
The compound `O=C(O)CCCCCCCNS(=O)(=O)c1ccc([N+](=O)[O-])cc1` gave a melting point of 126 to 127 °C.
As for `CCC(COC)(OC)c1cncc(O)c1` (centres undefined), the figure is 87 to 88 °C; as for `CN1CCN(c2cccc3c2C[C@H](NC(=O)c2cccc(OS(C)(=O)=O)c2)CC3)CC1`, 159 to 160 °C; as for `CCOC(=O)C(C)C(NC(C)=O)C(C(C)=O)C(=O)OC` (centres undefined), 93 to 96 °C.
The value for `COc1cccc(CNC(=O)c2nc3scc(-c4ccccc4)c3c(=O)[nH]2)c1` was 177 to 178 °C.

As a reminder, the melting point is the temperature, or range, at which the solid turns liquid.

The record behind these values is a melting point compilation (Tetko et al.; mined from patent text by program, amines drawn as free bases though some values may be those of a salt).
